Data published in BindingDB's records for doi:10.1016/s0028-3908(97)00049-x (Roche Bioscience, 1997).

What was measured:
Substance-P receptor = Substance-P receptor (Homo sapiens, UniProt P25103)
[1] = biological target: Kappa-type opioid receptor (Cavia porcellus, UniProt P41144)
[2] = biological target: T1, 5-hydroxytryptamine receptor 1A (Rattus norvegicus, UniProt P19327)
T1 sequence (P19327 whole entry): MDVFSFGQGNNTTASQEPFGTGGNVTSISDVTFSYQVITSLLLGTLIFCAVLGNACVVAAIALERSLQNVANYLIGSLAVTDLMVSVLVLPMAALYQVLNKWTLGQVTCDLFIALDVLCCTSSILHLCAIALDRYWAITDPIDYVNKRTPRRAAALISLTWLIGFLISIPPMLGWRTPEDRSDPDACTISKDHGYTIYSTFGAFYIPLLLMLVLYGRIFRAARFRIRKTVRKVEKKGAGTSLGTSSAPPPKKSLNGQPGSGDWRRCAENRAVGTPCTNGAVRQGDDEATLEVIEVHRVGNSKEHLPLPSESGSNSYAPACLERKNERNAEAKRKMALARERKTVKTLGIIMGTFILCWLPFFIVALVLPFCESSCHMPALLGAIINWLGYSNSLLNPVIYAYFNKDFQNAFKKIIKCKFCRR

[3] = biological target: T2, Alpha-1B adrenergic receptor (Rattus norvegicus, UniProt P15823)
T2 sequence (P15823 whole entry): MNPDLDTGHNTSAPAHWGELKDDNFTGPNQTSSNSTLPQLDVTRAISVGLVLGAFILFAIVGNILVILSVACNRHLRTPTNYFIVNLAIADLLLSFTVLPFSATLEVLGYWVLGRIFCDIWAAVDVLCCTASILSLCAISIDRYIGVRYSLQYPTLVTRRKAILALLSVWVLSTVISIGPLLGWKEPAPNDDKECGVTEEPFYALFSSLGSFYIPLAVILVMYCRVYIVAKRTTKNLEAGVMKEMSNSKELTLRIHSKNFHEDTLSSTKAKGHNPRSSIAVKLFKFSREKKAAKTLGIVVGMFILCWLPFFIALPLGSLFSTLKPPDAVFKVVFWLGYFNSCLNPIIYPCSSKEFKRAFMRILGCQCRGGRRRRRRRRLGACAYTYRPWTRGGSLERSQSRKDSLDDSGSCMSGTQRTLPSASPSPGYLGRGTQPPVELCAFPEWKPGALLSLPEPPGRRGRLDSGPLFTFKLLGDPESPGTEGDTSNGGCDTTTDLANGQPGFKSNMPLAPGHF

[4] = biological target: T3, 5-hydroxytryptamine receptor 3A (Mus musculus, UniProt P23979)
T3 sequence (P23979 whole entry): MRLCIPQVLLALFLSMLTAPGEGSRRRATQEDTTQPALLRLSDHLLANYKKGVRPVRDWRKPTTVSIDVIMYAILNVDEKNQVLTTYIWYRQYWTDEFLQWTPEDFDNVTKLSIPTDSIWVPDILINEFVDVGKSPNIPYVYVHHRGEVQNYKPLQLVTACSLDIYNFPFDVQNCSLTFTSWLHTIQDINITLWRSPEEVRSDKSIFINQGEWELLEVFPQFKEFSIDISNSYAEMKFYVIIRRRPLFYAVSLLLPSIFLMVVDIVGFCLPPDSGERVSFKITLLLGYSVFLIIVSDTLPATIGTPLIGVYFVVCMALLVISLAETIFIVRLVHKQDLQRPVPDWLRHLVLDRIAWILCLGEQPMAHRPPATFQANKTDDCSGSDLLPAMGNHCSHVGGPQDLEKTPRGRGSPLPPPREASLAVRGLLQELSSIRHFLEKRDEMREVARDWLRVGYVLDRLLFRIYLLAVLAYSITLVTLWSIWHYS

[5] = biological target: Gamma-aminobutyric acid receptor subunit alpha-1 (Rattus norvegicus, UniProt P62813)
Chain of Gamma-aminobutyric acid receptor subunit alpha-1 (P62813 whole entry): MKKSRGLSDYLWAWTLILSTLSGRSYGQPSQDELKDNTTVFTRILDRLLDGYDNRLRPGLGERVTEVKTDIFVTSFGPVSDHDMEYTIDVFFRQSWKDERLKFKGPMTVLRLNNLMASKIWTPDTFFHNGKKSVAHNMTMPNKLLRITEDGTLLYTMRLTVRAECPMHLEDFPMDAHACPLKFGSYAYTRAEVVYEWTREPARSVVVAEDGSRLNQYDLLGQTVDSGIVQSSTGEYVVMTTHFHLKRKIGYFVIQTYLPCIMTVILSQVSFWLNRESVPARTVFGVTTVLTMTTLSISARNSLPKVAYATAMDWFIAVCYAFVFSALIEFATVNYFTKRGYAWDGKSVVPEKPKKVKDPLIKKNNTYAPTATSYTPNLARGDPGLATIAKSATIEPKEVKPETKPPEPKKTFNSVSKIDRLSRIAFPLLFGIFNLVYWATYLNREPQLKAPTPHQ

[6] = biological target: 5-hydroxytryptamine receptor 7 (Cavia porcellus, UniProt P50407)
Chain of 5-hydroxytryptamine receptor 7 (P50407 whole entry): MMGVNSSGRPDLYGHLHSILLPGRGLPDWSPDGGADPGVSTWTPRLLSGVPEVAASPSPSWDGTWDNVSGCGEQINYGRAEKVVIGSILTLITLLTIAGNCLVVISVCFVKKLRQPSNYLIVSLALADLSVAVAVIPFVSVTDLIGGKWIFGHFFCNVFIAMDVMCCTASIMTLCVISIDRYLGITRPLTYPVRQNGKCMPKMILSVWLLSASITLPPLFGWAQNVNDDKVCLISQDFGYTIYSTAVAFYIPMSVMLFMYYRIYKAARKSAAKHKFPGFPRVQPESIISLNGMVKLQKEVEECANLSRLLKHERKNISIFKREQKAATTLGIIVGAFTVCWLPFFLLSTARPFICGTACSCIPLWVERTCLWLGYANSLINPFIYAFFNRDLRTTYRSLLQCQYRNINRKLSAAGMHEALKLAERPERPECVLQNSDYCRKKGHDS

[7] = biological target: T4, Alpha-2A adrenergic receptor (Oryctolagus cuniculus, UniProt Q5ZQK3)
T4 sequence (Q5ZQK3 whole entry): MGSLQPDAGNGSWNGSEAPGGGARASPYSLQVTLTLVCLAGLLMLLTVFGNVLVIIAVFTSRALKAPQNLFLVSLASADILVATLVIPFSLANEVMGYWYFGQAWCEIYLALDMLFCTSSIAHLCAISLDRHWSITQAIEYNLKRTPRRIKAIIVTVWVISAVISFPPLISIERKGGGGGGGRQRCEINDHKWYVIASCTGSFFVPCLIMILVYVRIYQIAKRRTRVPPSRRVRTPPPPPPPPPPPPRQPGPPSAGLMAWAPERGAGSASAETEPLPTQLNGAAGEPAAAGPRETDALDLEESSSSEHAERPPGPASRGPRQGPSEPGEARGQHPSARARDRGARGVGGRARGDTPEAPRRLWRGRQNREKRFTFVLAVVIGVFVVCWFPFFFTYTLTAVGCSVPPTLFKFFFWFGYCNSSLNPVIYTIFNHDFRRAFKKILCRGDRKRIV

[8] = biological target: T5, Alpha-2B adrenergic receptor (Rattus norvegicus, UniProt P19328)
T5 sequence (P19328 whole entry): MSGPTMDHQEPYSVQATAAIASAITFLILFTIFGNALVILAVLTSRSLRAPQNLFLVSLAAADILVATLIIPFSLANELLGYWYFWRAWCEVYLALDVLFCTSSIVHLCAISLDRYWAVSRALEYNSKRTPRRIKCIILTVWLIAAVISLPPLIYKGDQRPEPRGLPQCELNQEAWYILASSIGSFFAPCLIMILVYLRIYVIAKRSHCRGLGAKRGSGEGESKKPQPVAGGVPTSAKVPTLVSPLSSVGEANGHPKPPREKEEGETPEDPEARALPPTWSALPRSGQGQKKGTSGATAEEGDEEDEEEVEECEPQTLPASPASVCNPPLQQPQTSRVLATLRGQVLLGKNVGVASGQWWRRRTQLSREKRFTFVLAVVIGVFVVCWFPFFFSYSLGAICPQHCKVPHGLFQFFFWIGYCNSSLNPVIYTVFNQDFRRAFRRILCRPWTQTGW

[9] = biological target: T6, Beta-1 adrenergic receptor (Oryctolagus cuniculus, UniProt A0A4Y6F0G0)
T6 sequence (A0A4Y6F0G0 whole entry): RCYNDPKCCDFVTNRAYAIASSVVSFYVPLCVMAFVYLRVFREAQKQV

[10] = biological target: T7, Muscarinic acetylcholine receptor M2 (Rattus norvegicus, UniProt P10980)
T7 sequence (P10980 whole entry): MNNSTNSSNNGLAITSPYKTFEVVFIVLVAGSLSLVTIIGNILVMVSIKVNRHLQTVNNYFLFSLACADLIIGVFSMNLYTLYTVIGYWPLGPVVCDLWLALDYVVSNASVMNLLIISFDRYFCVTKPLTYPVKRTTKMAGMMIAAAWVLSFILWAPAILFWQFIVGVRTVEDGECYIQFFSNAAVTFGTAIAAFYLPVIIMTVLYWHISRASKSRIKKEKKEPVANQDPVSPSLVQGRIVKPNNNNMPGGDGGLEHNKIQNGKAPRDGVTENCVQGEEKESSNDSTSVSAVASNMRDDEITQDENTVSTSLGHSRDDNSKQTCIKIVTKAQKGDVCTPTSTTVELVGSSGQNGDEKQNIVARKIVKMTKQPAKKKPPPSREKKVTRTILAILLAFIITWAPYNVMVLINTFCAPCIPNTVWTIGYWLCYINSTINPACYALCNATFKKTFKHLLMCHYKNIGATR

[11] = biological target: T8, Muscarinic acetylcholine receptor M1 (Rattus norvegicus, UniProt P08482)
T8 sequence (P08482 whole entry): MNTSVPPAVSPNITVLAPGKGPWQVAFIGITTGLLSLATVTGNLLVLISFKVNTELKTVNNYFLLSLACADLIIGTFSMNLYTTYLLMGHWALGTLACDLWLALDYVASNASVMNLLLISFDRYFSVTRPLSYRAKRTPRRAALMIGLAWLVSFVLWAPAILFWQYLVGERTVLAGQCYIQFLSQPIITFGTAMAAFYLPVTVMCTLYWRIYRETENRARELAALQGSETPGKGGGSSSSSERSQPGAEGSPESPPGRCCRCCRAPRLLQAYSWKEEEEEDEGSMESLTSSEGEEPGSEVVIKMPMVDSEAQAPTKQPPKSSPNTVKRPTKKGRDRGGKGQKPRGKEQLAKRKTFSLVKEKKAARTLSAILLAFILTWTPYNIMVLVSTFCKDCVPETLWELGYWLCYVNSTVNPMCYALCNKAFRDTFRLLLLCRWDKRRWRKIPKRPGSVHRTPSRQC

[12] = biological target: Muscarinic acetylcholine receptor M3 (Rattus norvegicus, UniProt P08483)
Chain of Muscarinic acetylcholine receptor M3 (P08483 whole entry): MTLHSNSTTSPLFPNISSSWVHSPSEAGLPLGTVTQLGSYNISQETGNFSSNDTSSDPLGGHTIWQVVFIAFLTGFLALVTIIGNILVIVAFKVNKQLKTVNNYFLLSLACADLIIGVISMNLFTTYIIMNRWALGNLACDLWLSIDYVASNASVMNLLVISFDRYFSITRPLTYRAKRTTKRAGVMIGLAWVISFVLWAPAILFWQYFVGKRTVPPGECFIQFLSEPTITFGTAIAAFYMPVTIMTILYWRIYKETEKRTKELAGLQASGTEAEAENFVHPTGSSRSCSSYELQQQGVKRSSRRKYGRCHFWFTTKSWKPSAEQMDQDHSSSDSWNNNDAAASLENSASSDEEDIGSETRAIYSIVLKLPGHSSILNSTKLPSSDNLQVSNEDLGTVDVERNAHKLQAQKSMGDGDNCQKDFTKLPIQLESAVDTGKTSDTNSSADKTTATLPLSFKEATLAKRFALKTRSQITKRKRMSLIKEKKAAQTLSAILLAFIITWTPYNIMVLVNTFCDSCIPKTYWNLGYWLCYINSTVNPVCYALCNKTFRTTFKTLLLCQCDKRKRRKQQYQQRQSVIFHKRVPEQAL

Glutamate receptor 3 = Glutamate receptor 3 (Rattus norvegicus, UniProt P19492)
Chain of Glutamate receptor 3 (P19492 whole entry): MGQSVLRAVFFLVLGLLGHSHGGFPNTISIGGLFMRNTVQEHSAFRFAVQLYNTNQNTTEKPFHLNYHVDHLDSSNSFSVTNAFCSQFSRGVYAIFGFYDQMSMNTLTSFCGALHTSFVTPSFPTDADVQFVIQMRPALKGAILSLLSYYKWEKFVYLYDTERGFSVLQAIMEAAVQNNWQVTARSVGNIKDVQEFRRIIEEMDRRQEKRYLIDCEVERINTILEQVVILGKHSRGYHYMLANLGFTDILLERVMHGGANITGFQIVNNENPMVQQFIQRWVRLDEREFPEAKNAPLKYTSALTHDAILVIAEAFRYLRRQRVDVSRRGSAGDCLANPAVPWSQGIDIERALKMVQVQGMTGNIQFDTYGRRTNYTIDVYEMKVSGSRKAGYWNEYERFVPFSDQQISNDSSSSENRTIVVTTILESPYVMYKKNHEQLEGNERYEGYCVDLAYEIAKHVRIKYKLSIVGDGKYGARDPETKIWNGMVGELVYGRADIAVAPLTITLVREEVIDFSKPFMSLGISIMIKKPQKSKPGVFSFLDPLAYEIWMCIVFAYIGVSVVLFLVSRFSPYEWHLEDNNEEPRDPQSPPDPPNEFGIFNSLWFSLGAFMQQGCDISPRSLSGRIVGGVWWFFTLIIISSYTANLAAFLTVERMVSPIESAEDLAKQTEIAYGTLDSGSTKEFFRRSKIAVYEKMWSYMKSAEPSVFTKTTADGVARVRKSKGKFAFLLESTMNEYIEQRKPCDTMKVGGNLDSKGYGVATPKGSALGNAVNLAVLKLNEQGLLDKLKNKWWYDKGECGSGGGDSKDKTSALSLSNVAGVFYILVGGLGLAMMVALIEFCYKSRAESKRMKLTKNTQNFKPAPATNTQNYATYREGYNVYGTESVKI

[13] = biological target: Glutamate receptor ionotropic, NMDA 1 (Rattus norvegicus, UniProt P35439)
Mu-type opioid receptor = Mu-type opioid receptor (Cavia porcellus, UniProt P97266)
Chain of Mu-type opioid receptor (P97266 whole entry): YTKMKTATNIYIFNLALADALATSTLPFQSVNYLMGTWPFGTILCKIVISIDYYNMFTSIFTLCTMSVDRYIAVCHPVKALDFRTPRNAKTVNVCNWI

[14] = biological target: Beta-2 adrenergic receptor (Rattus norvegicus, UniProt P10608)
Chain of Beta-2 adrenergic receptor (P10608 whole entry): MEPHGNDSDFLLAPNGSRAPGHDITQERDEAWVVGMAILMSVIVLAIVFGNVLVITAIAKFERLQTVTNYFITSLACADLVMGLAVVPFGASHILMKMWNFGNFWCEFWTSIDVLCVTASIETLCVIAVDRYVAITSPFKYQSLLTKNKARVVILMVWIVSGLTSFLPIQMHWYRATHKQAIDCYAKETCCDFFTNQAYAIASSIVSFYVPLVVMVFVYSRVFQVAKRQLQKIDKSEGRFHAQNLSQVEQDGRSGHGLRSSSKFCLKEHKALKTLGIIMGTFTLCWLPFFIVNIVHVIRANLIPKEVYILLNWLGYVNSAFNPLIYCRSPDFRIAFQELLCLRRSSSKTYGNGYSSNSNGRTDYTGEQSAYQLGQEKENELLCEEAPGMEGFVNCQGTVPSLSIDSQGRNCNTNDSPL

Chain of Substance-P receptor (P25103 whole entry): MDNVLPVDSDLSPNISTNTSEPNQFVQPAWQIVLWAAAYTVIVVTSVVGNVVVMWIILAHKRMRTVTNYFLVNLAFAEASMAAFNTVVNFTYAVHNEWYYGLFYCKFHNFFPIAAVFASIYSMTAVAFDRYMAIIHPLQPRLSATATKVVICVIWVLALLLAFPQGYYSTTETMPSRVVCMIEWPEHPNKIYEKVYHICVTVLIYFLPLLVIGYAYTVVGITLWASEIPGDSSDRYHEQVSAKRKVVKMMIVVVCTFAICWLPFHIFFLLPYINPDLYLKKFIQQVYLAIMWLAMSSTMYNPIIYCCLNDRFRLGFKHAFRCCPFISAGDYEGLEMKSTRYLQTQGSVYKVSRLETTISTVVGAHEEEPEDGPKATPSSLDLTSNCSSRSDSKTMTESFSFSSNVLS
Chain of Kappa-type opioid receptor (P41144 whole entry): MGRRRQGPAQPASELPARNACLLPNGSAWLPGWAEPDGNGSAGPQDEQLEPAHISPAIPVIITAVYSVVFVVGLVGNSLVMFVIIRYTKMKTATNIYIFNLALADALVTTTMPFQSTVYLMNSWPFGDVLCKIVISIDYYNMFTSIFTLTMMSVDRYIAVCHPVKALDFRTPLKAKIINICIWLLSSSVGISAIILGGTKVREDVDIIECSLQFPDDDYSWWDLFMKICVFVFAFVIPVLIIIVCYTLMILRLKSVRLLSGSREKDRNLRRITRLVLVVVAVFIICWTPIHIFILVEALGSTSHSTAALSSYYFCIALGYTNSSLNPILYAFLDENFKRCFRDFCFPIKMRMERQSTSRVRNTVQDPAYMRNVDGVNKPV

- Ki (Substance-P receptor): > 10 µM
- Ki [1]: > 10 µM
- Ki [2]: > 10 µM
- Ki [3]: > 10 µM
- Ki [4]: > 10 µM
- Ki [5]: > 10 µM
- Ki [6]: > 10 µM
- Ki [7]: 0.316 µM
- Ki [8]: > 10 µM
- Ki [9]: > 10 µM
- Ki [10]: > 10 µM
- Ki [11]: > 10 µM
- Ki [12]: > 10 µM
- Ki (Glutamate receptor 3): > 10 µM
- Ki [13]: > 10 µM
- Ki (Mu-type opioid receptor): > 10 µM
- Ki [14]: > 10 µM
Structure (SMILES): COc1cc(OC)c(C(=O)CCCCN2CCC3(CC2)NC(=O)NC3=O)cc1NS(=O)(=O)c1ccc(C(F)(F)F)cc1 [N-[5-[5-(2,4-Dioxo-1,3,8-triazaspiro[4.5]decan-8-yl)-1-oxopentyl]-2,4-dimethoxyphenyl]-4-(trifluoromethyl)benzenesulfonamide]
